From patent publication US20140235544A1, “DISEASE TREATMENT VIA ANTIMICROBIAL PEPTIDES OR THEIR INHIBITORS” (priority 2013, published 2014)

What was measured:
[1] = system: psoriatic lesions in a human subject; assay: Human in-vivo psoriatic lesion treatment
Protocol: Human in-vivo psoriatic lesion treatment: Cathelicidin 10 ug/ml or human beta defensin-2 diluted in PBS containing 0.1% BSA, or buffer carrier was applied to lesions in a human subject in a blind trial.

[2] = Infection and immunity, November 1999; cited from earlier work
BETATC beta cell line = assay: Thymidine incorporation cell proliferation assay; assay type: cell-based, mouse; conditions: 2 microgram/ml, 3.5 days
Protocol: Murine beta cell line were treated for 3.5 days with LL-37 at 2 microgram/ml (red/dark bars) and compared to PBS control ([…]). Cell proliferation was estimated by measuring [3(H)]-thymidine incorporation and was expressed as percent of control untreated cells. A representative experiment is shown.
The antimicrobial peptides human cathelicidin LL-37: […] was obtained from AnaSpec, USA (Catalogue numbers: 61302). Cathelicidin at 2 ug/ml was added to the plate and compared with control.
Cell proliferation was evaluated by measuring [3(H)]-thymidine incorporation into DNA. Cells were pulsed with [3(H)]-thymidine (1 microcurie/mL, ICN, Irvine, Calif.) for 1 hour, at 37 degrees centigrade. After incubation, cells were washed 3 times with PBS, incubated for 15 minutes at room temperature in 5% trichloroacetic acid and solubilized in 1% triton X-100. The radioactivity incorporated into the cells was counted in the [3(H)]-window of a Tricarb liquid scintillation counter. Mean values were determined from measurements of triplicate samples under each experimental condition for each experiment. Thymidine incorporation was determined as number of disintegrations per minute (DPM) per mg of protein.

[3] = 10 ug/ml applied to lesion, 5 days treatment

Row | Substance | change of skin psoriatic lesion [1, 3] | half-life in blood of humans [2] | beta cell proliferation ([3(H)]-thymidine incorporation) vs PBS control (BETATC beta cell line) | change of skin psoriatic lesion ([1]; applied to lesion, seven week course of treatment)
1 | SKEKIGKEFKRIVQRIKDFLRNLVPRTES (listed as Homo sapiens) [SK29, cathelicidin fragment, 29 amino acids] | slight improvement |  |  | 
2 | LLGDFFRKSKEKIGKEFKRIVQRIKDFLRNLVPRTES [LL-37] | slight improvement | approximately 3.4 days | significant BETATC beta cell line proliferation | 
3 | human beta defensin-2 [reference compound] |  |  |  | worsening
